What was measured:
[1] = target: DHODH (Homo sapiens (Human), UniProt Q02127); assay: DHODH activity assay (coupled enzyme assay, DCIP reduction); assay type: biochemical; settings: read-out: DHODH inhibition activity, IC50 group
Description: The DHODH activity assay is a coupled enzyme assay in which oxidation of DHO and subsequent reduction of ubiquinone are stoichiometrically equivalent to the reduction of DCIP ([…]). The reduction of DCIP is accompanied by a loss of absorbance at 610 nm.
Buffer Preparation: 50 mM tris HCl, 150 mM KCl, and pH 8.0, 0.8% triton.
L-Dihydroorotic acid stock solution of 20 mM in buffer.
2, 6-Dichloroindophenol Sodium salt hydrate stock solution of 20 mM in buffer.
Decylubiquinone stock solution of 20 mM in buffer.
5 μL of Dimethyl sulfoxide or a compound of formula (I) in DMSO solution was added to the wells of a 96 well plate. Compounds of formula (I) were measured at 10 μM.
Protein along with buffer was added, so that the total volume including the DMSO was 87 μL. Compound and protein were incubated for half an hour at room temperature after mixing. 5 μL of 20 mM solution of L-Dihydroorotic acid, 5 μL of 2 mM solution of Decylubiquinone and 3 μL of 2 mM solution of 2, 6-Dichloroindophenol sodium salt hydrate were added to the above solution (total assay volume 100 μL). The mixture was stirred for 2 min and absorbance was recorded at every 10 min at 610 nanometers.
Percent inhibition is calculated as follows: […]
A 2 mM DMSO stock solution of the selected trisubstituted benzoimidazole and benzotriazole derivatives of formula (I) of the present invention to be examined was prepared. Subsequent ⅓rd dilutions were made.
5 μL of each stock of compound of formula (I) was used for each 100 μL assay. Therefore, 5 μL of the 2 mM stock provided 100 μL of 100 μM solution of compound of formula (I), when made up with buffer, protein and substrate. See also: Ulrich et al. (2001) Eur. J. Biochem.268, 1861-1868.

[2] = tested on: Ramos cells; assay: Ramos proliferation assay (XTT); assay type: cell-based; settings: Homo sapiens, 72 hrs; for inhibition at 30 µM: read-out: Maximum % Inhibition at 30 μM; for IC50: XTT
Excerpt: Cell proliferation assay is a sensitive method for quantification of viable cells in cytotoxicity or proliferation assay. The XTT (2,3-bis[2-Methoxy-4-nitro-5-sulfophenyl]-2 H-tetrazolium-5-carboxyanilide inner salt) system is a means of measuring the activity of living cells via mitochondrial dehydrogenases. Mitochondrial dehydrogenases of viable cells cleave the tetrazolium ring of XTT, yielding orange formazon crystals which are soluble in aqueous solutions. The XTT solution is potentiated by the addition of an electron coupling agent, phenazine methosulphate (PMS) to the reaction. The resulting orange colour is spectrophotometrically measured at 450 nm. An increase or decrease in cell numbers results in a concomitant change in the amount of formazon formed, indicating the degree of cytotoxicity caused by the test material.
Dissolve 17.7 g IMDM (Iscove's Modified Dulbecco's Medium) powder, 1.5 g sodium bicarbonate pH 7.2-7.4 in 1 L MiliQ water, add 1% Pencilin/ Streptomycin and 10% FBS.
Dissolve 10.6 g Ham's F12 powder, 1.5 g sodium bicarbonate pH 7.2-7.4 in 1 L MiliQ water, add 1% Penicillin/Streptomycin. DMSO used as vehicle.
Ramos cells were re-suspended to a density of 1×10^5 cells/ ml in complete IMDM medium. 95 μL of this cell suspension was added to the 96-well plate to seed ˜10,000 cells per well. The plates were incubated at 37° C. under a humidified atmosphere of 5% CO2 for ˜1 hour before compound addition.
Test compounds (Refer to Table 1) were dissolved in 100% DMSO to generate a 2/6/10/20 mM stock solution. A 200× concentration of the required final concentrations was prepared in DMSO. 10 μL of each concentration (200×) was then diluted in 90 μL of serum-free Ham's F12 medium to get an intermediate concentration of 20× in medium. The DMSO concentration in this step is 10% (Intermediate dilution). 5 μL of each intermediate dilution was then added in triplicates in the previously seeded 96-well plate. The final DMSO concentration was 0.5% in the experimental wells. Cells treated with 0.5% DMSO served as positive control. 100 μL, of complete IMDM medium served as media blank for data analysis. 200 μL, of 1× PBS was added in all corner wells of the assay plate. Plates were then incubated for 72 hrs in an incubator with 5% CO2 at 37° C.
On termination day, 100 μl of XTT solution (1 mg/ml XTT supplemented with 25 μM PMS in Ham's F12 medium) was added to each well. Plates were incubated for 2 hrs. The amount of formazon produced was determined by reading the absorbance of the plate using VICTOR X5 multilabel plate reader at wavelength of 450 nm. The IC50 values were determined as concentrations that reduced cell viability by 50% and the curve was plotted with GraphPad Prism 6.0.
Percent (%) Inhibition was calculated by normalizing DMSO control values to 100% using the formula: % Inhibition=[…](Abs450test compound−blank)/(Abs450positive control−blank)*100
Test compound contains cells, test compound, IMDM medium and 0.5% DMSO
Positive control contains cells, IMDM medium and 0.5% DMSO
Blank contains IMDM medium

Chain of DHODH (Q02127 whole entry): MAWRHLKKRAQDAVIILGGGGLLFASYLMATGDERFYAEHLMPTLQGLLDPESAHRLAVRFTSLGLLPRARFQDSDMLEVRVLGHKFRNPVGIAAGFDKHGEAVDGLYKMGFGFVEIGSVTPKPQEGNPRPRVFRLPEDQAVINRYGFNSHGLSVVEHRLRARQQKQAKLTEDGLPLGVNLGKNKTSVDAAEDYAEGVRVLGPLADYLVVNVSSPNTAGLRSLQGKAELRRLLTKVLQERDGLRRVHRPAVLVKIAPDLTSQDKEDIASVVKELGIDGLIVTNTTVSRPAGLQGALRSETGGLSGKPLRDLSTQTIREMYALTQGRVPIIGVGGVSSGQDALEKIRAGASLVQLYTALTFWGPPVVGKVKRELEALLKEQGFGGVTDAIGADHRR

Structure (SMILES)	IC50 [1]	IC50 [2]	inhibition at 30 µM [2]	inhibition at 10 µM ([2]; 10 μM, read-out: Maximum % Inhibition (at 10 μM))
Cc1ccccc1-c1ccc(-c2cc(C(N)=O)c3c(c2)nnn3C)cc1 [Compound 2, 1-methyl-5-(2′-methyl-[1,1′-biphenyl]-4-yl)-1H-benzo[d] [1,2,3]triazole-7-carboxamide]	< 100 nM	1090 nM	95%	
Cc1ccccc1-c1ccc(-c2cc(C(N)=O)c3nn(C)nc3c2)cc1 [Compound 11, 2-methyl-6-(2′-methyl-[1,1′-biphenyl]-4-yl)-2H-benzo[d][1,2,3]triazole-4-carboxamide]	101 to 1000 nM			67%
Cc1ccc(C)n1-c1ccc(-c2cc(C(=O)O)c3c(c2)nnn3C)cc1 [Compound 12, 5-(4-(2,5-dimethyl-1H-pyrrol-1-yl)phenyl)-1-methyl-1H-benzo[d][1,2,3]triazole-7-carboxylic acid]	< 100 nM	362 nM	103%	
Cc1ccc(C)n1-c1ccc(-c2cc(C(=O)O)c3nn(C)nc3c2)cc1 [Compound 13, 6-(4-(2,5-dimethyl-1H-pyrrol-1-yl)phenyl)-2-methyl-2H-benzo[d][1,2,3]triazole-4-carboxylic acid]	101 to 1000 nM	3880 nM	100%	
Cn1nnc2cc(-c3c(F)c(F)c(-c4ccccc4)c(F)c3F)cc(C(=O)O)c21 [Compound 19, 1-methyl-5-(2,3,5,6-tetrafluoro-[1,1′-biphenyl]-4-yl)-1H-benzo[d][1,2,3]triazole-7-carboxylic acid]	< 100 nM	70 nM	106%	
Cn1nc2cc(-c3c(F)c(F)c(-c4ccccc4)c(F)c3F)cc(C(=O)O)c2n1 [Compound 24, 2-methyl-6-(2,3,5,6-tetrafluoro-[1,1′-biphenyl]-4-yl)-2H-benzo[d][1,2,3]triazole-4-carboxylic acid]	< 100 nM	400 nM	104%	
CC(C)NCc1cccc(-c2c(F)c(F)c(-c3cc(C(=O)O)c4c(c3)nnn4C)c(F)c2F)c1 [Compound 36, 1-methyl-5-(2,3,5,6-tetrafluoro-3′-((isopropylamino)methyl)-[1,1′-biphenyl]-4-yl)-1H-benzo[d][1,2,3]triazole-7-carboxylic acid]	101 to 1000 nM			
CNCc1cccc(-c2c(F)c(F)c(-c3cc(C(=O)O)c4c(c3)nnn4C)c(F)c2F)c1 [Compound 37, 1-methyl-5-(2,3,5,6-tetrafluoro-3′-((methylamino)methyl)-[1,1′-biphenyl]-4-yl)-1H-benzo[d][1,2,3]triazole-7-carboxylic acid]	> 1000 nM			

More lines, main results first:

IC50 [1]	IC50 [2]	Structure (SMILES)	inhibition at 30 µM [2]	inhibition at 10 µM ([2]; 10 μM, read-out: Maximum % Inhibition (at 10 μM))
101 to 1000 nM	524 nM	Cn1nnc2cc(-c3ccc(-c4ccccc4)cc3)cc(C(=O)O)c21 [Compound 3, 5-([1,1′-biphenyl]-4-yl)-1-methyl-1H-benzo[d][1,2,3]triazole-7-carboxylic acid]	113%	
101 to 1000 nM	1450 nM	Cn1nc2cc(-c3ccc(-c4ccccc4)cc3)cc(C(=O)O)c2n1 [Compound 4, 6-([1,1′-biphenyl]-4-yl)-2-methyl-2H-benzo[d][1,2,3]triazole-4-carboxylic acid]	107%	
< 100 nM	154 nM	Cc1ccccc1-c1ccc(-c2cc(C(=O)O)c3nn(C)nc3c2)cc1 [Compound 8, 2-methyl-6-(2′-methyl-[1,1′-biphenyl]-4-yl)-2H-benzo[d][1,2,3]triazole-4-carboxylic acid]	103%	
> 1000 nM	8410 nM	Cn1nnc2cc(-c3ccc(-c4cccc(CN5CCOCC5)c4)cc3)cc(C(=O)O)c21 [Compound 15, 1-methyl-5-(3′-(morpholinomethyl)-[1,1′-biphenyl]-4-yl)-1H-benzo[d][1,2,3]triazole-7-carboxylic acid]	96%	
> 1000 nM	6140 nM	Cn1nc2cc(-c3ccc(-c4cccc(CN5CCOCC5)c4)cc3)cc(C(=O)O)c2n1 [Compound 16, 2-methyl-6-(3′-(morpholinomethyl)-[1,1′-biphenyl]-4-yl)-2H-benzo[d][1,2,3]triazole-4-carboxylic acid]	124%	
> 1000 nM		Cn1nnc2cc(-c3ccc(-c4cccc(CN5CCCC5)c4)cc3)cc(C(=O)O)c21 [Compound 17, 1-methyl-5-(3′-(pyrrolidin-1-ylmethyl)-[1,1′-biphenyl]-4-yl)-1H-benzo[d][1,2,3]triazole-7-carboxylic acid]	50%	
> 1000 nM	3720 nM	Cn1nnc2c(C(=O)O)cc(-c3ccc(-c4cccc(CN5CCCCC5)c4)cc3)cc21 [Compound 20, 1-methyl-6-(3′-(piperidin-1-ylmethyl)-[1,1′-biphenyl]-4-yl)-1H-benzo[d][1,2,3]triazole-4-carboxylic acid]	129%	
101 to 1000 nM	2820 nM	Cn1nnc2cc(-c3ccc(-c4ccccc4CN4CCOCC4)cc3)cc(C(=O)O)c21 [Compound 25, 1-methyl-5-(2′-(morpholinomethyl)-[1,1′-biphenyl]-4-yl)-1H-benzo[d][1,2,3]triazole-7-carboxylic acid]	120%	
> 1000 nM	4260 nM	Cn1nc2cc(-c3ccc(-c4ccccc4CN4CCOCC4)cc3)cc(C(=O)O)c2n1 [Compound 26, 2-methyl-6-(2′-(morpholinomethyl)-[1,1′-biphenyl]-4-yl)-2H-benzo[d][1,2,3]triazole-4-carboxylic acid]	133%	
> 1000 nM	3050 nM	Cn1nnc2cc(-c3ccc(-c4ccccc4CN4CCCC4)cc3)cc(C(=O)O)c21 [Compound 27, 1-methyl-5-(2′-(pyrrolidin-1-ylmethyl)-[1,1′-biphenyl]-4-yl)-1H-benzo[d][1,2,3]triazole-7-carboxylic acid]	89%	
101 to 1000 nM		Cn1nnc2cc(-c3c(F)c(F)c(-c4cccc(CN5CCOCC5)c4)c(F)c3F)cc(C(=O)O)c21 [Compound 33, 1-methyl-5-(2,3,5,6-tetrafluoro-3′-(morpholinomethyl)-[1,1′-biphenyl]-4-yl)-1H-benzo[d][1,2,3]triazole-7-carboxylic acid]		
> 1000 nM		CN1CCN(Cc2cccc(-c3c(F)c(F)c(-c4cc(C(=O)O)c5c(c4)nnn5C)c(F)c3F)c2)CC1 [Compound 35, 1-methyl-5-(2,3,5,6-tetrafluoro-3′-((4-methylpiperazin-1-yl)methyl)-[1,1′-biphenyl]-4-yl)-1H-benzo[d][1,2,3]triazole-7-carboxylic acid]		

From patent publication US11147801B2, “Methods of use for trisubstituted benzotriazole derivatives as dihydroorotate oxygenase inhibitors” (Aurigene Discovery Technologies Limited, priority 2017, dated 2021)
